In patent publication US10844044B2 (Vanderbilt University, priority 2018, dated 2020):
Like-named read-outs stand apart in the source and are kept apart here.

Legend:
[1] = tested on: MV4:11 human cancer cell lines; assay: Anti-proliferative activity, CellTiter-Glo viability assay, 7 day protocol; format: cell-based; settings: Homo sapiens, MV4-11, 168 h, MV4:11 cells, 7 day incubation, read-out: GI50 on cellular proliferation of MV4:11 human cancer cell lines
How it was run: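 Luminescent CellTiter-Glo readout after 7-day compound exposure of MV4:11 cells plated at 3600 cells/ml (final DMSO 0.1%). GI50 derived from three biological × three technical replicates, reported as mean ± S.E.M.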

WDR5 = WDR5 (Homo sapiens (Human), UniProt P61964); assay: TR-FRET binding assay (displacement of 10mer-Thr-FAM probe from WDR5); settings: read-out: Ki for Inhibition of WDR5 by TR-FRET assay
[2] = TR-FRET, 10mer-Thr-FAM probe, WDR5-His tag 2 nM, pH 7.0

Compound	GI50 [1] [nM]	Ki (WDR5; [2]) [nM]	Ki (WDR5) [nM]
COc1cc(OC)cc(C(NC(=O)c2cc(Cn3ccn(C)c3=N)cc(-c3ccc(F)cc3OC(F)F)c2)C2CC2)c1 (stereo not drawn) [Example 63, N-(Cyclopropyl(3,5-dimethoxyphenyl)methyl)-2′-(difluoromethoxy)-4′-fluoro-5-((2-imino-3-methyl-2,3-dihydro-1H-imidazol-1-yl)methyl)-[1,1′-biphenyl]-3-carboxamide]	460	0.1	–
Cc1cc([C@@H](NC(=O)c2cc(Cn3ccn(C)c3=N)cc(-c3ncccc3C(F)(F)F)c2)C2CC2)ccc1F [Example 64, (S)—N-(Cyclopropyl(4-fluoro-3-methylphenyl)methyl)-3-((2-imino-3-methyl-2,3-dihydro-1H-imidazol-1-yl)methyl)-5-(3-(trifluoromethyl)pyridin-2-yl)benzamide]	930	0.59	–
COc1cc(CNC(=O)c2cc(Cn3ccn(C)c3=N)cc(-c3c(C)cc(F)cc3C)c2)cc(OC)c1 [Example 65, N-(3,5-dimethoxybenzyl)-4′-fluoro-5-((2-imino-3-methyl-2,3-dihydro-1H-imidazol-1-yl)methyl)-2′,6′-dimethyl-[1,1′-biphenyl]-3-carboxamide]	300	0.63	–
Cc1cc([C@@H](NC(=O)c2cc(Cn3ccn(C)c3=N)cc(-c3ncc(F)cc3C)c2)C2CC2)ccc1F [Example 66, (S)—N-(Cyclopropyl(4-fluoro-3-methylphenyl)methyl)-3-(5-fluoro-3-methylpyridin-2-yl)-5-((2-imino-3-methyl-2,3-dihydro-1H-imidazol-1-yl)methyl)benzamide]	510	0.12	–
COc1cc(CNC(=O)c2cc(Cn3ccn(C)c3=N)cc(-c3ncc(F)cc3C)c2)cc(OC)c1 [Example 67, N-(3,5-Dimethoxybenzyl)-3-(5-fluoro-3-methylpyridin-2-yl)-5-((2-imino-3-methyl-2,3-dihydro-1H-imidazol-1-yl)methyl)benzamide]	3800	–	3.9
COc1cc(OC)cc(C(NC(=O)c2cc(Cn3ccn(C)c3=N)cc(-c3ncc(F)cc3C)c2)C2CC2)c1 (stereo not drawn) [Example 68, N-(Cyclopropyl(3,5-dimethoxyphenyl)methyl)-3-(5-fluoro-3-methylpyridin-2-yl)-5-((2-imino-3-methyl-2,3-dihydro-1H-imidazol-1-yl)methyl)benzamide]	2700	–	0.35
Cc1ccnc(C(NC(=O)c2cc(Cn3ccn(C)c3=N)cc(-c3ncc(F)cc3C)c2)C2CC2)c1 (stereo not drawn) [Example 69]	5100	2.4	–
Cc1ccnc(C(NC(=O)c2cc(Cn3ccn(C)c3=N)cc(-c3ccc(F)cc3OC(F)F)c2)C2CC2)c1 (stereo not drawn) [Example 71, N-(Cyclopropyl(4-methylpyridin-2-yl)methyl)-2′-(difluoromethoxy)-4′-fluoro-5-((2-imino-3-methyl-2,3-dihydro-1H-imidazol-1-yl)methyl)-[1,1′-biphenyl]-3-carboxamide]	1900	0.33	–
Cn1ccn(Cc2cc(C(=O)NC(CC(=O)O)c3ccc(Cl)c(Cl)c3)cc(-c3ccc(F)cc3C(F)(F)F)c2)c1=N (stereo not drawn) [Example 84, 3-(3,4-Dichlorophenyl)-3-(4′-fluoro-5-((2-imino-3-methyl-2,3-dihydro-1H-imidazol-1-yl)methyl)-2′-(trifluoromethyl)-[1,1′-biphenyl]-3-carboxamido)propanoic acid]	2100	0.12	–
Cc1ccnc([C@@H](NC(=O)c2cc(Cn3ccn(C)c3=N)cc(-c3ccc(F)cc3C)c2)C2CC2)c1 [Example 91, (S)—N-(Cyclopropyl(4-methylpyridin-2-yl)methyl)-4′-fluoro-5-((2-imino-3-methyl-2,3-dihydro-1H-imidazol-1-yl)methyl)-2′-methyl-[1,1′-biphenyl]-3-carboxamide]	210	< 0.1	–
COc1cc(CNC(=O)c2cc(Cn3ccn(C)c3=N)cc(-c3ccc(F)cc3C(F)(F)F)c2)cc(OC)c1 [Example 98, N-(3,5-Dimethoxybenzyl)-4′-fluoro-5-((2-imino-3-methyl-2,3-dihydro-1H-imidazol-1-yl)methyl)-2′-(trifluoromethyl)-[1,1′-biphenyl]-3-carboxamide]	160	0.06	–
Cn1ccn(Cc2cc(C(=O)NC(CC(=O)O)c3ccc(Cl)c(Cl)c3)nc(-c3ccc(F)cc3C(F)(F)F)c2)c1=N (stereo not drawn) [Example 104, 3-(3,4-Dichlorophenyl)-3-(6-(4-fluoro-2-(trifluoromethyl)phenyl)-4-((2-imino-3-methyl-2,3-dihydro-1H-imidazol-1-yl)methyl)picolinamido)propanoic acid]	14000	0.13	–
Cc1ccnc(C(NC(=O)c2cc(Cn3ccn(C)c3=N)cc(-c3ccc(F)cc3C(F)(F)F)c2F)C2CC2)c1 (stereo not drawn) [Example 105, N-(Cyclopropyl(4-methylpyridin-2-yl)methyl)-2,4′-difluoro-5-((2-imino-3-methyl-2,3-dihydro-1H-imidazol-1-yl)methyl)-2′-(trifluoromethyl)-[1,1′-biphenyl]-3-carboxamide]	400	< 0.1	–
Cc1cc([C@@H](NC(=O)c2cc(Cn3ccn(C)c3=N)cc(-c3ccc(F)cc3C(F)(F)F)n2)C2CC2)ccc1F [Example 107, (S)—N-(Cyclopropyl(4-fluoro-3-methylphenyl)methyl)-6-(4-fluoro-2-(trifluoromethyl)phenyl)-4-((2-imino-3-methyl-2,3-dihydro-1H-imidazol-1-yl)methyl)picolinamide]	950	0.23	–
COc1cc(CNC(=O)c2cc(Cn3ccn(C)c3=N)cc(-c3ccc(F)cc3C(F)(F)F)c2F)cc(OC)c1 [Example 108, N-(3,5-Dimethoxybenzyl)-2,4′-difluoro-5-((2-imino-3-methyl-2,3-dihydro-1H-imidazol-1-yl)methyl)-2′-(trifluoromethyl)-[1,1′-biphenyl]-3-carboxamide]	310	< 0.1	–
Cc1cc(CNC(=O)c2cc(Cn3ccn(C)c3=N)cc(-c3ccc(F)cc3C(F)(F)F)c2F)ccc1Cl [Example 111, N-(4-Chloro-3-methylbenzyl)-2,4′-difluoro-5-((2-imino-3-methyl-2,3-dihydro-1H-imidazol-1-yl)methyl)-2′-(trifluoromethyl)-[1,1′-biphenyl]-3-carboxamide]	300	< 0.1	–
CCn1ccn(Cc2cc(C(=O)N[C@H](c3ccc(F)c(C)c3)C3CC3)cc(-c3cccnc3C(F)(F)F)c2)c1=N [Example 114, (S)—N-(Cyclopropyl(4-fluoro-3-methylphenyl)methyl)-3-((3-ethyl-2-imino-2,3-dihydro-1H-imidazol-1-yl)methyl)-5-(2-(trifluoromethyl)pyridin-3-yl)benzamide]	300	–	< 0.1
Cc1cc([C@@H](NC(=O)c2cc(Cn3ccn(C4CC4)c3=N)cc(-c3cccnc3C(F)(F)F)c2)C2CC2)ccc1F [Example 115, (S)—N-(Cyclopropyl(4-fluoro-3-methylphenyl)methyl)-3-((3-cyclopropyl-2-imino-2,3-dihydro-1H-imidazol-1-yl)methyl)-5-(2-(trifluoromethyl)pyridin-3-yl)benzamide]	< 100	< 0.1	–
CCn1ccn(Cc2cc(C(=O)NCc3cc(OC)cc(OC)c3)cc(-c3ccc(F)cc3C)c2)c1=N [Example 116, N-(3,5-Dimethoxybenzyl)-5-((3-ethyl-2-imino-2,3-dihydro-1H-imidazol-1-yl)methyl)-4′-fluoro-2′-methyl-[1,1′-biphenyl]-3-carboxamide]	570	0.4	–
COc1cc(CNC(=O)c2cc(Cn3ccn(C4CC4)c3=N)cc(-c3ccc(F)cc3C)c2)cc(OC)c1 [Example 117, 5-((3-Cyclopropyl-2-imino-2,3-dihydro-1H-imidazol-1-yl)methyl)-N-(3,5-dimethoxybenzyl)-4′-fluoro-2′-methyl-[1,1′-biphenyl]-3-carboxamide]	310	0.15	–
COc1cc(OC)cc(C(NC(=O)c2cc(Cn3ccn(C)c3=N)cc(-c3ccnn3C(C)C)c2)C2CC2)c1 (stereo not drawn) [Example 118, N-(Cyclopropyl(3,5-dimethoxyphenyl)methyl)-3-((2-imino-3-methyl-2,3-dihydro-1H-imidazol-1-yl)methyl)-5-(1-isopropyl-1H-pyrazol-5-yl)benzamide]	6300	0.83	–
Cc1cc([C@@H](NC(=O)c2cc(Cn3ccn(C)c3=N)cc(-c3cccnc3C(F)(F)F)n2)C2CC2)ccc1F [Example 119, (S)—N-(Cyclopropyl(4-fluoro-3-methylphenyl)methyl)-4-((2-imino-3-methyl-2,3-dihydro-1H-imidazol-1-yl)methyl)-2′-(trifluoromethyl)-[2,3′-bipyridine]-6-carboxamide]	7600	0.16	–
Cc1ccnc([C@@H](NC(=O)c2cc(Cn3ccn(C)c3=N)cc(-c3ccc(F)cc3C(F)(F)F)c2F)C2CC2)c1 [Example 120, (S)—N-(Cyclopropyl(4-methylpyridin-2-yl)methyl)-2,4′-difluoro-5-((2-imino-3-methyl-2,3-dihydro-1H-imidazol-1-yl)methyl)-2′-(trifluoromethyl)-[1,1′-biphenyl]-3-carboxamide]	220	< 0.1	–
CC(=O)/N=c1\n(C)ccn1Cc1cc(C(=O)NCc2ccc(Cl)c(Cl)c2)cc(-c2ccc(F)nc2C)c1 [Example 121, (E)-3-((2-(acetylimino)-3-methyl-2,3-dihydro-1H-imidazol-1-yl)methyl)-N-(3,4-dichlorobenzyl)-5-(6-fluoro-2-methylpyridin-3-yl)benzamide]	5900	–	> 33
